Data published in patent US10196386B2, “Compounds having muscarinic receptor antagonist and beta2 adrenergic receptor agonist activity” (priority 2016, dated 2019).

Tests used:
[1] = target: T1, Human β2 adrenoceptor (Homo sapiens, UniProt P07550); experiment: β2 adrenoceptor radioligand binding assay
T1 construct: purchased Perkin Elmer
How it was run: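 Human β2 receptor membranes incubated 1 h at room temperature with 0.3 nM [125I]cyanopindolol and compound in pH 7.4 HEPES buffer (0.5% DMSO); 2 μM s-propranolol defined non-specific binding. Bound label counted after filtration; IC50 from competition curves, converted to Ki via Cheng–Prusoff.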

[2] = target: T2, Human M3 receptor (Homo sapiens, UniProt P20309); experiment: biochemical; assay type: binding; details: read-out: M3 Range
T2 construct: purchased Perkin Elmer
T2 sequence (P20309 whole entry): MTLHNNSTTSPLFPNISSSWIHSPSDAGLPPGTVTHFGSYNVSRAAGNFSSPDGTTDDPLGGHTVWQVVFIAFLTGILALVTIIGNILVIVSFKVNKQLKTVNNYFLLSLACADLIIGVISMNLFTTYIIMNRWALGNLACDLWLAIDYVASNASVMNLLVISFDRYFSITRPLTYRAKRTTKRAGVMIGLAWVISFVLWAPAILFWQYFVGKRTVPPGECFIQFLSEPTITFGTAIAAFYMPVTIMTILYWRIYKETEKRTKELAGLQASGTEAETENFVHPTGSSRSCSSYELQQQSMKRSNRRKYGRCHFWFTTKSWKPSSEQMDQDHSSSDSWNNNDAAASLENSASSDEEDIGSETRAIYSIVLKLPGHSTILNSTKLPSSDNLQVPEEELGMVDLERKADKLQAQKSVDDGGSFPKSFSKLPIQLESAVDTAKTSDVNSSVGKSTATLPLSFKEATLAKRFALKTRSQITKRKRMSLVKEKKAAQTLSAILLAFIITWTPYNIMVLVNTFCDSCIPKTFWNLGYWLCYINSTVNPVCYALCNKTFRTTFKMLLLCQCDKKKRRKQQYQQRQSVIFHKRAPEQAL

T1 sequence (P07550 whole entry): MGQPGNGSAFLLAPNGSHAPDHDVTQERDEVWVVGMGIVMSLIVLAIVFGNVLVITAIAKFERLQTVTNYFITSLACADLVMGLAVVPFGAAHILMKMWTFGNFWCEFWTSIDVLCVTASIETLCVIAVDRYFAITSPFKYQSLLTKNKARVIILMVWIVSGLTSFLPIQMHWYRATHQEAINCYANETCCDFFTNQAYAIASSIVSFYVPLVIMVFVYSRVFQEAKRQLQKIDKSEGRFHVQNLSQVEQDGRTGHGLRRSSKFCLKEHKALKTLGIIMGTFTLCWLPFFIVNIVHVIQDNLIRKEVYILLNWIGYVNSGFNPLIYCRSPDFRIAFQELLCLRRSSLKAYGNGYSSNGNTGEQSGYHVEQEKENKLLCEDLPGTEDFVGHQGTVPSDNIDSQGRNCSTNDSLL

SMILES | IC50 [1] [pM] | IC50 [2] [pM]
O=C(NCC(=O)N1CC=C(c2cccc([C@](O)(C(=O)OCC3CCN(Cc4ccccc4)CC3)c3ccccc3)c2)CC1)c1ccc(CNC[C@H](O)c2ccc(O)c3[nH]c(=O)ccc23)cc1 [Compound 8D, (1-Benzylpiperidin-4-yl)methyl (S)-2-hydroxy-2-(3-(1-((4-((((R)-2-hydroxy-2-(8-hydroxy-2-oxo-1,2-dihydroquinolin-5-yl)ethyl)amino)methyl)-benzoyl)glycyl)-1,2,3,6-tetrahydropyridin-4-yl)phenyl)-2-phenylacetate] | < 300 | 300 to 3000
COc1cc(C(=O)NCC(=O)N2CC=C(c3cccc([C@](O)(C(=O)OCC4CCN(Cc5ccccc5)CC4)c4ccccc4)c3)CC2)ccc1CNC[C@H](O)c1ccc(O)c2[nH]c(=O)ccc12 [Compound 8E, (1-Benzylpiperidin-4-yl)methyl (S)-2-hydroxy-2-(3-(1-((4-((((R)-2-hydroxy-2-(8-hydroxy-2-oxo-1,2-dihydroquinolin-5-yl)ethyl)amino)methyl)-3-methoxybenzoyl)glycyl)-1,2,3,6-tetrahydropyridin-4-yl)phenyl)-2-phenylacetate] | < 300 | 300 to 3000
CN(CC(=O)N1CC=C(c2cccc([C@](O)(C(=O)OCC3CCN(Cc4ccccc4)CC3)c3ccccc3)c2)CC1)C(=O)c1ccc(CNC[C@H](O)c2ccc(O)c3[nH]c(=O)ccc23)cc1 [Compound 8F, (1-Benzylpiperidin-4-yl)methyl (S)-2-hydroxy-2-(3-(1-(N-(4-((((R)-2-hydroxy-2-(8-hydroxy-2-oxo-1,2-dihydroquinolin-5-yl)ethyl)amino)-methyl)benzoyl)-N-methylglycyl)-1,2,3,6-tetrahydropyridin-4-yl)phenyl)-2-phenylacetate] | 300 to 3000 | 300 to 3000
O=C(NCCCNC[C@H](O)c1ccc(O)c2[nH]c(=O)ccc12)c1cncc(-c2cccc([C@](O)(C(=O)OCC3CCN(Cc4ccccc4)CC3)c3ccccc3)c2)n1 [Compound 10, (1-Benzylpiperidin-4-yl)methyl (S)-2-hydroxy-2-(3-(6-((3-(((R)-2-hydroxy-2-(8-hydroxy-2-oxo-1,2-dihydroquinolin-5-yl)ethyl)amino)propyl)carbamoyl)pyrazin-2-yl)phenyl)-2-phenylacetate] | 300 to 3000 | 300 to 3000
COc1cc(C(=O)NCc2ccc(-c3cccc([C@](O)(C(=O)OCC4(C)CCN(Cc5ccccc5)CC4)c4ccccc4)c3)s2)c(Cl)cc1CNC[C@H](O)c1ccc(O)c2[nH]c(=O)ccc12 [Compound 11, (1-Benzyl-4-methylpiperidin-4-yl)methyl (S)-2-(3-(5-((2-chloro-4-((((R)-2-hydroxy-2-(8-hydroxy-2-oxo-1,2-dihydroquinolin-5-yl)ethyl)amino)methyl)-5-methoxybenzamido)methyl)thiophen-2-yl)phenyl)-2-hydroxy-2-phenylacetate] | < 300 | 300 to 3000
O=C1c2ccc(CNC[C@H](O)c3ccc(O)c4[nH]c(=O)ccc34)cc2C(=O)N1Cc1ccc(-c2cccc([C@](O)(C(=O)OCC3CCN(Cc4ccccc4)CC3)c3ccccc3)c2)s1 [Compound 12, (1-Benzylpiperidin-4-yl)methyl (S)-2-hydroxy-2-(3-(5-((5-((((R)-2-hydroxy-2-(8-hydroxy-2-oxo-1,2-dihydroquinolin-5-yl)ethyl)amino)methyl)-1,3-dioxoisoindolin-2-yl)methyl)thiophen-2-yl)phenyl)-2-phenylacetate] | 300 to 3000 | 300 to 3000
O=C(NCC(=O)N1CCC(c2cccc([C@](O)(C(=O)OCC3CCN(Cc4ccccc4)CC3)c3ccccc3)c2)CC1)c1ccc(CCNC[C@H](O)c2ccc(O)c3[nH]c(=O)ccc23)cc1 [Compound 13, (1-Benzylpiperidin-4-yl)methyl (S)-2-hydroxy-2-(3-(1-((4-(2-(((R)-2-hydroxy-2-(8-hydroxy-2-oxo-1,2-dihydroquinolin-5-yl)ethyl)amino)ethyl)benzoyl)-glycyl)piperidin-4-yl)phenyl)-2-phenylacetate] | < 300 | 300 to 3000
Cn1nc(C(=O)NCc2ccc(CNC[C@H](O)c3ccc(O)c4[nH]c(=O)ccc34)cc2)cc1-c1cccc([C@](O)(C(=O)OCC2CCN(Cc3ccccc3)CC2)c2ccccc2)c1 [Compound 14, (1-Benzylpiperidin-4-yl)methyl (S)-2-hydroxy-2-(3-(3-((4-((((R)-2-hydroxy-2-(8-hydroxy-2-oxo-1,2-dihydroquinolin-5-yl)ethyl)amino)methyl)-benzyl)carbamoyl)-1-methyl-1H-pyrazol-5-yl)phenyl)-2-phenylacetate] | 300 to 3000 | 300 to 3000
O=C(NCc1ccc(-c2ccc([C@](O)(C(=O)OCC3CCN(Cc4ccccc4)CC3)c3ccccc3)cc2)s1)c1ccc(CNC[C@H](O)c2ccc(O)c3[nH]c(=O)ccc23)cc1 [Compound 15, (1-benzylpiperidin-4-yl)methyl (S)-2-hydroxy-2-(4-(5-((4-((((R)-2-hydroxy-2-(8-hydroxy-2-oxo-1,2-dihydroquinolin-5-yl)ethyl)amino)methyl)benzamido)methyl)-thiophen-2-yl)phenyl)-2-phenylacetate×2 HCOOH] | < 300 | 300 to 3000
COc1cc(C(=O)NCc2ccc(-c3ccc([C@](O)(C(=O)OCC4CCN(Cc5ccccc5)CC4)c4ccccc4)cc3)s2)ccc1CNC[C@H](O)c1ccc(O)c2[nH]c(=O)ccc12 [Compound 15A, (1-benzylpiperidin-4-yl)methyl (S)-2-hydroxy-2-(4-(5-((4-((((R)-2-hydroxy-2-(8-hydroxy-2-oxo-1,2-dihydroquinolin-5-yl)ethyl)amino)methyl)-3-methoxybenzamido)methyl)thiophen-2-yl)phenyl)-2-phenylacetate] | < 300 | 300 to 3000
O=C(NCc1cc(-c2ccc([C@](O)(C(=O)OCC3CCN(Cc4ccccc4)CC3)c3ccccc3)cc2)cs1)c1ccc(CNC[C@H](O)c2ccc(O)c3[nH]c(=O)ccc23)cc1 [Compound 15B, (1-benzylpiperidin-4-yl)methyl (S)-2-hydroxy-2-(4-(5-((4-((((R)-2-hydroxy-2-(8-hydroxy-2-oxo-1,2-dihydroquinolin-5-yl)ethyl)amino)methyl)-benzamido)methyl)thiophen-3-yl)phenyl)-2-phenylacetate] | 300 to 3000 | > 3000
O=C(NCc1cnc(-c2ccc([C@](O)(C(=O)OCC3CCN(Cc4ccccc4)CC3)c3ccccc3)cc2)s1)c1ccc(CNC[C@H](O)c2ccc(O)c3[nH]c(=O)ccc23)cc1 [Compound 15C, (1-benzylpiperidin-4-yl)methyl (S)-2-hydroxy-2-(4-(5-((4-((((R)-2-hydroxy-2-(8-hydroxy-2-oxo-1,2-dihydroquinolin-5-yl)ethyl)amino)methyl)-benzamido)methyl)thiazol-2-yl)phenyl)-2-phenylacetate] | < 300 | 300 to 3000
O=C(NCc1ccc(-c2ccc([C@](O)(C(=O)OCC3CCN(Cc4ccccc4)CC3)c3ccccc3)cc2)cn1)c1ccc(CNC[C@H](O)c2ccc(O)c3[nH]c(=O)ccc23)cc1 [Compound 15D, (1-benzylpiperidin-4-yl)methyl (S)-2-hydroxy-2-(4-(6-((4-((((R)-2-hydroxy-2-(8-hydroxy-2-oxo-1,2-dihydroquinolin-5-yl)ethyl)amino)methyl)-benzamido)methyl)pyridin-3-yl)phenyl)-2-phenylacetate] | < 300 | 300 to 3000
O=C(c1ccc(CNC[C@H](O)c2ccc(O)c3[nH]c(=O)ccc23)cc1)N1CC=C(c2ccc([C@](O)(C(=O)OCC3CCN(Cc4ccccc4)CC3)c3ccccc3)cc2)CC1 [Compound 15E, (1-benzylpiperidin-4-yl)methyl (S)-2-hydroxy-2-(4-(1-(4-((((R)-2-hydroxy-2-(8-hydroxy-2-oxo-1,2-dihydroquinolin-5-yl)ethyl)amino)methyl)benzoyl)-1,2,3,6-tetrahydropyridin-4-yl)phenyl)-2-phenylacetate] | < 300 | 300 to 3000
COc1cc(C(=O)NCc2cc(-c3ccc([C@](O)(C(=O)OCC4CCN(Cc5ccccc5)CC4)c4ccccc4)cc3)cs2)ccc1CNC[C@H](O)c1ccc(O)c2[nH]c(=O)ccc12 [Compound 15F, (1-benzylpiperidin-4-yl)methyl (S)-2-hydroxy-2-(4-(5-((4-((((R)-2-hydroxy-2-(8-hydroxy-2-oxo-1,2-dihydroquinolin-5-yl)ethyl)amino)methyl)-3-methoxybenzamido)methyl)thiophen-3-yl)phenyl)-2-phenylacetate] | < 300 | 300 to 3000
O=C(NCc1ccc(CCNC[C@H](O)c2ccc(O)c3[nH]c(=O)ccc23)cc1)c1ccc(-c2ccc([C@](O)(C(=O)OCC3CCN(Cc4ccccc4)CC3)c3ccccc3)cc2)s1 [Compound 16, (1-benzylpiperidin-4-yl)methyl (S)-2-hydroxy-2-(4-(5-((4-(2-(((R)-2-hydroxy-2-(8-hydroxy-2-oxo-1,2-dihydroquinolin-5-yl)ethyl)amino)ethyl)benzyl)-carbamoyl)thiophen-2-yl)phenyl)-2-phenylacetate×2 HCOOH] | 300 to 3000 | > 3000
